Measured values reported in ChEMBL document CHEMBL3301448, “MMV Malaria Box screening against Toxoplasma gondii and Entamoeba histolytica”.

How the values were obtained:
Entamoeba histolytica = experiment: MMV: Primary screening was performed with each compound at a 30 uM final concentration and in triplicate in sealed 96-well polystyrene microtiter plates. Parasite inocula (100 ul) comprising 20000 parasites/ml were added to each well and grown at 37 degrees C in a humidified atmosphere of 5% CO2 for 72 h. Positive controls consisted of metronidazole at 1 mg/ml. The growth of E. histolytica trophozoites in each well was determined microscopically by measuring the diameters of the confluent cells in drug-containing wells relative to those in the nega- tive-control wells.; assay type: functional, organism-based
Toxoplasma gondii = experiment: MMV: A total of 100ul of inoculum was added to each well (parasite/cell ratio, ~10:1; final volume, 200 ul). Six hours after inoculation, nonadherent parasites were removed, and 100 ul of complete DMEM (1% penicillin-streptomycin, 3% FBS) supplemented with inhibitors at different concentrations (2-fold serial dilutions starting from 30 uM) was added to all except the negative-control wells. Positive controls, consisting of pyrimethamine (PYR) and sulfadiazine (SDZ) (20-mg/ml stocks in DMSO), were tested at a 2mg/ml final concentration. Each test was performed in triplicate.; assay type: functional, organism-based; conditions: 6 h

SMILES | IC50 (Entamoeba histolytica) [µM] | IC50 (Toxoplasma gondii) [µM]
COc1ccc(Nc2nc(N/N=C/c3ccc(O)cc3)nc(Nc3ccc([N+](=O)[O-])cc3)n2)cc1 | > 30 | > 30
O=C(NNc1cc(N2CCCC2)nc(N2CCCC2)n1)c1ccccc1 | > 30 | > 30
COC(=O)c1ccc(Cl)c2c1C1C=CCC1C(c1cccc3ccccc13)N2 (stereo not drawn) | > 30 | > 30
O=C(CCc1ccccc1)c1ccccc1OCC(O)CN1CCCCC1 (stereo not drawn) | > 30 | > 30
Cn1c(C(=O)c2cccc3ccccc23)nc2ccccc21 | > 30 | > 30
OCCNc1nc(Nc2ccc(Cl)c(Cl)c2)nc2ccccc12 | > 30 | > 30
Nc1ccc(-c2nc3cc(Oc4ccc(Oc5ccc6[nH]c(-c7ccc(N)cc7)nc6c5)cc4)ccc3[nH]2)cc1 | > 30 | > 30
Cc1cc(N(C)C)nc(Nc2ccc(NC(=O)Nc3ccccc3)cc2)n1 | > 30 | > 30
Cc1ccc(Nc2nc(N)c3ccccc3n2)cc1Cl | > 30 | > 30
CCc1ccc(CNCC(O)c2ccccc2)cc1 (stereo not drawn) | > 30 | > 30
CCCn1c(=N)c(C(=O)NC2CCCCC2)cc2c(=O)n3cccc(C)c3nc21 | > 30 | > 30
Nc1ccn([C@@H]2O[C@H](CO)[C@@H](O)[C@H]2O)c(=O)n1 [CYTIDINE] | > 30 | > 30
O=C(Nc1cccc(C2=NCCN2)c1)Nc1cccc(C2=NCCN2)c1 [IMIDOCARB] | > 30 | > 30
CN(C)c1ccc(C(O)(c2ccc(N(C)C)cc2)c2ccc(N(C)C)cc2)cc1 [METHYLROSANILINE] | > 30 | > 30
